# Test system: primary human AML cells
# Assay: Primary screen: differentiation of primary human AML cells in vitro (CD34/CD15, HTS flow cytometry)
# Conditions: for percent gated cells (viability): 2 μM (commercial libraries) or 1 μg/ml (IRIC); for % increase CD34+ (%) / % increase CD34+ (cell counts) / % increase CD34+CD15− (cell counts): compared to DMSO; for % increase CD34+CD15− (%): compared to DMSO ((compound − DMSO)/DMSO*100)
# Method: AML cells were thawed in 37° C. water bath and 1:10 diluted in prewarmed Iscove's modified Dulbecco's medium (IMDM) containing 20% FBS and DNase 100 μg/ml. […] When compounds were added to the culture medium, final DMSO concentrations were 0.1% in all in vitro experiments and 0.01% when cultured cells were transplanted into NSG-mice.
# Compounds were tested at 2 μM (commercial libraries) or 1 μg/ml (Medicinal Chemistry Facility, IRIC). […] For validation experiments AML cells were grown in 384-well plates with 3-8 replicates per condition.
# Flow cytometry was performed on an LSR™ II cytometer equipped with an HTS-device (BD Bioscience, Primary and Secondary screens and in vitro validation experiments) or on a BD Canto™ II cytometer (BD Bioscience, Xenotransplantation and CellTrace Violet™ experiments). Cells were stained for 30 minutes at 4° C. protected from light if not otherwise indicated (CellTrace Violet™ staining). […] CD34 intensities in flow cytometry plots were set at high levels on day 0 to allow tracing of non-predictable decreases of intensities during 7 days in culture.
Molecule,percent gated cells (viability),% increase CD34+ (%),% increase CD34+ (cell counts),% increase CD34+CD15− (cell counts),% increase CD34+CD15− (%)
"COc1ccc2c(c1)[nH]c1c(C)nccc12.Cl [UM0118303, Harmine hydrochloride]",78.60%,8.79%,−17.08%,38.52%,81.33%
"CC(=O)Oc1ccc(-c2cc(=O)c3c(OC(C)=O)cc(OC(C)=O)cc3o2)cc1 [UM0121171, Apigenin triacetate]",80.10%,48.36%,17.48%,31.61%,66.25%
"COc1c(-c2ccccc2)oc2c(OC)cccc2c1=O [UM0121168, 3,8-Dimethoxyflavone]",80.80%,29.05%,24.97%,53.85%,58.96%
"O=c1cc(-c2ccc(O)c(O)c2)oc2cc(O)cc(O)c12 [UM0118175, Luteolin]",79.80%,40.48%,4.97%,27.50%,70.76%
"NC(=Nc1ccccc1)NC(=O)c1nc(Cl)c(N)nc1N [UM0120143, Phenamil methanesulfonate]",84.10%,30.88%,28.04%,54.83%,58.21%
"O=c1c(O)c(-c2ccccc2)oc2cc(O)cc(O)c12 [UM0119448, Galangine]",,,−0.57%,23.06%,60.64%
"C[C@@H]1O[C@@H](O[C@H]2[C@H](Oc3cc(O)c4c(=O)c(O)c(-c5ccc(O)cc5)oc4c3)O[C@H](CO)[C@@H](O)[C@@H]2O)[C@H](O)[C@H](O)[C@H]1O [UM0119289, Kaempferol-7-Neohesperidoside]",,12.75%,29.49%,72.47%,50.39%
"COc1ccc(-c2cc(=O)c3ccccc3o2)cc1 [UM0070201, 4′-Methoxyflavone]",78.10%,28.71%,20.27%,58.22%,69.03%
"COc1cc2c(cc1O)C[C@H]1c3c(cc(O)c(OC)c3-2)CCN1C [UM0118103, Boldine]",87.00%,−3.69%,10.21%,50.97%,31.10%
"CC(C)=CCc1c(O)cc2oc(C)cc(=O)c2c1O [UM0121217, Peucenin]",83.20%,23.46%,37.27%,94.61%,74.92%
"CC[C@H](C)C(=O)O[C@H]1C[C@@H](C)C=C2C=C[C@H](C)[C@H](CC[C@@H]3C[C@@H](O)CC(=O)O3)[C@H]21 [UM0118699, Lovastatin]",81.00%,1.88%,−14.30%,36.94%,62.41%
"N[C@@H]1C[C@H]1c1ccccc1.N[C@H]1C[C@@H]1c1ccccc1.O=S(=O)(O)O [UM0121497, Tranylcypromine sulfate]",76.50%,20.22%,−15.83%,19.65%,70.66%
"COc1cc(-c2ccc(N=Nc3ccc4c(S(=O)(=O)[O-])cc(S(=O)(=O)[O-])c(N)c4c3O)c(OC)c2)ccc1N=Nc1ccc2c(S(=O)(=O)[O-])cc(S(=O)(=O)[O-])c(N)c2c1O.[Na+].[Na+].[Na+].[Na+] [UM0118703, Chicago sky blue 6B]",,42.39%,31.67%,42.76%,54.52%
"CCOC(=O)c1oc2c(OC)c(O)cc(O)c2c(=O)c1-c1cc(OC)c(OC)c(OC)c1 [UM0121233, 2-Ethoxycarbonyl-5,7-dihydroxy-8,3′,4′,5′-tetramethoxyisoflavone]",86.30%,15.01%,18.21%,50.24%,45.77%
"OC[C@@H]1CCCN2CCCC[C@H]12 [UM0119416, Lupinine]",,10.12%,30.63%,51.77%,28.13%
"Cc1cc(=O)oc2cc(O)c(O)cc12 [UM0120835, 4-Methylesculetin]",84.90%,22.85%,18.23%,104.34%,111.64%
2′-beta-Dihydrochalcone [UM0120960],,24.69%,8.21%,41.99%,63.62%
"Oc1cc(O)cc(/C=C/c2ccccc2)c1 [UM0120964, Pinosylvin]",69.90%,24.20%,8.62%,39.69%,59.46%
"COC(=O)/C(C)=C\CC12OC(C)(C)C3CC(C=C4C(=O)c5c(OC)c6c(c(CC=C(C)C)c5OC431)OC(C)(CCC=C(C)C)C=C6)C2=O (stereo not shown) [UM0120889, Dimethyl gambogate]",,47.72%,−50.44%,−48.79%,52.62%

# Source: patent US9757378B2, “Methods to modulate acute myeloid leukemia stem/progenitor cell expansion and/or differentiation” (UNIVERSITE DE MONTREAL, priority 2013, dated 2017)
